{"source": "patent US20130252816A1", "about": "“HERBICIDAL COMPOSITION AND USE THEREOF” (Syngenta Crop Protection LLC, priority 2010, published 2013)", "key": {"[1]": {"test_system": "broadleaf weed and grass species", "assay": "Example 2: overall statement on alcohol ethoxylates without glyphosate", "assay_type": "in vivo", "conditions": "absence of glyphosate", "description": "The effect of different types of alcohol ethoxylate (branched—Genapol X-series, and unbranched—Genapol O-series, differing degrees of ethoxylation, see Table 3 below for more details), on unwanted vegetation (broadleaf weed and grass species), in the absence of glyphosate, was investigated and compared to untreated (water only) control weeds.\nTroughs (measuring 16 cm by 13 cm by 5 cm) were filled with local field soil. Seeds of Veronica persica, Stellaria media, Trifolium repens and Poa annua were sown 24 days before application of test samples. Plants were grown in the glasshouse at 18 to 20° C. and 60% relative humidity. Application of alcohol ethoxylate test samples was carried out using a tracksprayer, spraying at a rate of 300 l/ha. Plants were kept in glasshouse and visual assessment of the estimated percentage damage to the plant was carried out 1, 7, and 14 days from application.\nDamage was assessed as wilting, desiccation or any other kind of visual injury in comparison to the untreated control (water only)."}, "[2]": {"test_system": "Trifolium repens", "assay": "Example 2: alcohol ethoxylate adjuvants without glyphosate, visual % damage, tracksprayer 300 l/ha", "assay_type": "in vivo", "procedure,_shortened": "(§1)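 Veronica persica, Stellaria media, Trifolium repens and Poa annua were sown 24 days before treatment and grown in a glasshouse at 18–20 °C and 60% RH. Alcohol ethoxylates without glyphosate were track-sprayed at 300 l/ha. Visual % damage (wilting, desiccation, other injury) versus water-only controls was scored 1, 7 and 14 days after application.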"}, "[3]": {"test_system": "Veronica persica", "assay": "Example 2: alcohol ethoxylate adjuvants without glyphosate, visual % damage, tracksprayer 300 l/ha", "assay_type": "in vivo", "procedure,_shortened": "as §1"}, "[4]": {"test_system": "Stellaria media", "assay": "Example 2: alcohol ethoxylate adjuvants without glyphosate, visual % damage, tracksprayer 300 l/ha", "assay_type": "in vivo", "procedure,_shortened": "as §1"}, "[5]": {"test_system": "Poa annua", "assay": "Example 2: alcohol ethoxylate adjuvants without glyphosate, visual % damage, tracksprayer 300 l/ha", "assay_type": "in vivo", "procedure,_shortened": "as §1"}, "[6]": {"test_system": "treated plants", "conditions": "after treatment, glyphosate per se; cited from earlier work"}}, "data": [{"compound": "Iso-tridecyl alcohol polyglycol ether with 8 moles of ethoxylation [GenapolX080]", "values": [{"measurement": "course of damage over time (recovery)", "setting": "[1]", "value": "the level of damage decreases from day 14 onwards"}, {"measurement": "mean % damage 1 daa Trifolium repens", "setting": "[2]; adjuvant 1% w/v", "value": 20, "unit": "%"}, {"measurement": "mean % damage 7 daa Trifolium repens", "setting": "[2]; adjuvant 1% w/v", "value": 20, "unit": "%"}, {"measurement": "mean % damage 14 daa Trifolium repens", "setting": "[2]; adjuvant 1% w/v", "value": 15, "unit": "%"}, {"measurement": "mean % damage 1 daa Trifolium repens", "setting": "[2]; adjuvant 1.5% w/v", "value": 50, "unit": "%"}, {"measurement": "mean % damage 7 daa Trifolium repens", "setting": "[2]; adjuvant 1.5% w/v", "value": 60, "unit": "%"}, {"measurement": "mean % damage 14 daa Trifolium repens", "setting": "[2]; adjuvant 1.5% w/v", "value": 10, "unit": "%"}, {"measurement": "mean % damage 1 daa Trifolium repens", "setting": "[2]; adjuvant 2% w/v", "value": 50, "unit": "%"}, {"measurement": "mean % damage 7 daa Trifolium repens", "setting": "[2]; adjuvant 2% w/v", "value": 60, "unit": "%"}, {"measurement": "mean % damage 14 daa Trifolium repens", "setting": "[2]; adjuvant 2% w/v", "value": 15, "unit": "%"}, {"measurement": "mean % damage 1 daa Trifolium repens", "setting": "[2]; adjuvant 2.5% w/v", "value": 50, "unit": "%"}, {"measurement": "mean % damage 7 daa Trifolium repens", "setting": "[2]; adjuvant 2.5% w/v", "value": 60, "unit": "%"}, {"measurement": "mean % damage 14 daa Trifolium repens", "setting": "[2]; adjuvant 2.5% w/v", "value": 10, "unit": "%"}, {"measurement": "mean % damage 1 daa Veronica persica", "setting": "[3]; adjuvant 1% w/v", "value": 5, "unit": "%"}, {"measurement": "mean % damage 7 daa Veronica persica", "setting": "[3]; adjuvant 1% w/v", "value": 5, "unit": "%"}, {"measurement": "mean % damage 14 daa Veronica persica", "setting": "[3]; adjuvant 1% w/v", "value": 5, "unit": "%"}, {"measurement": "mean % damage 1 daa Veronica persica", "setting": "[3]; adjuvant 1.5% w/v", "value": 10, "unit": "%"}, {"measurement": "mean % damage 7 daa Veronica persica", "setting": "[3]; adjuvant 1.5% w/v", "value": 20, "unit": "%"}, {"measurement": "mean % damage 14 daa Veronica persica", "setting": "[3]; adjuvant 1.5% w/v", "value": 20, "unit": "%"}, {"measurement": "mean % damage 1 daa Veronica persica", "setting": "[3]; adjuvant 2% w/v", "value": 20, "unit": "%"}, {"measurement": "mean % damage 7 daa Veronica persica", "setting": "[3]; adjuvant 2% w/v", "value": 10, "unit": "%"}, {"measurement": "mean % damage 14 daa Veronica persica", "setting": "[3]; adjuvant 2% w/v", "value": 20, "unit": "%"}, {"measurement": "mean % damage 1 daa Veronica persica", "setting": "[3]; adjuvant 2.5% w/v", "value": 30, "unit": "%"}, {"measurement": "mean % damage 7 daa Veronica persica", "setting": "[3]; adjuvant 2.5% w/v", "value": 40, "unit": "%"}, {"measurement": "mean % damage 14 daa Veronica persica", "setting": "[3]; adjuvant 2.5% w/v", "value": 40, "unit": "%"}, {"measurement": "mean % damage 1 daa Stellaria media", "setting": "[4]; adjuvant 1% w/v", "value": 10, "unit": "%"}, {"measurement": "mean % damage 7 daa Stellaria media", "setting": "[4]; adjuvant 1% w/v", "value": 10, "unit": "%"}, {"measurement": "mean % damage 14 daa Stellaria media", "setting": "[4]; adjuvant 1% w/v", "value": 5, "unit": "%"}, {"measurement": "mean % damage 1 daa Stellaria media", "setting": "[4]; adjuvant 1.5% w/v", "value": 10, "unit": "%"}, {"measurement": "mean % damage 7 daa Stellaria media", "setting": "[4]; adjuvant 1.5% w/v", "value": 10, "unit": "%"}, {"measurement": "mean % damage 14 daa Stellaria media", "setting": "[4]; adjuvant 1.5% w/v", "value": 0, "unit": "%"}, {"measurement": "mean % damage 1 daa Stellaria media", "setting": "[4]; adjuvant 2% w/v", "value": 20, "unit": "%"}, {"measurement": "mean % damage 7 daa Stellaria media", "setting": "[4]; adjuvant 2% w/v", "value": 20, "unit": "%"}, {"measurement": "mean % damage 14 daa Stellaria media", "setting": "[4]; adjuvant 2% w/v", "value": 10, "unit": "%"}, {"measurement": "mean % damage 1 daa Stellaria media", "setting": "[4]; adjuvant 2.5% w/v", "value": 30, "unit": "%"}, {"measurement": "mean % damage 7 daa Stellaria media", "setting": "[4]; adjuvant 2.5% w/v", "value": 30, "unit": "%"}, {"measurement": "mean % damage 14 daa Stellaria media", "setting": "[4]; adjuvant 2.5% w/v", "value": 10, "unit": "%"}, {"measurement": "mean % damage 1 daa Poa annua", "setting": "[5]; adjuvant 1% w/v", "value": 0, "unit": "%"}, {"measurement": "mean % damage 7 daa Poa annua", "setting": "[5]; adjuvant 1% w/v", "value": 10, "unit": "%"}, {"measurement": "mean % damage 14 daa Poa annua", "setting": "[5]; adjuvant 1% w/v", "value": 0, "unit": "%"}, {"measurement": "mean % damage 1 daa Poa annua", "setting": "[5]; adjuvant 1.5% w/v", "value": 10, "unit": "%"}, {"measurement": "mean % damage 7 daa Poa annua", "setting": "[5]; adjuvant 1.5% w/v", "value": 30, "unit": "%"}, {"measurement": "mean % damage 14 daa Poa annua", "setting": "[5]; adjuvant 1.5% w/v", "value": 5, "unit": "%"}, {"measurement": "mean % damage 1 daa Poa annua", "setting": "[5]; adjuvant 2% w/v", "value": 40, "unit": "%"}, {"measurement": "mean % damage 7 daa Poa annua", "setting": "[5]; adjuvant 2% w/v", "value": 50, "unit": "%"}, {"measurement": "mean % damage 14 daa Poa annua", "setting": "[5]; adjuvant 2% w/v", "value": 10, "unit": "%"}, {"measurement": "mean % damage 1 daa Poa annua", "setting": "[5]; adjuvant 2.5% w/v", "value": 40, "unit": "%"}, {"measurement": "mean % damage 7 daa Poa annua", "setting": "[5]; adjuvant 2.5% w/v", "value": 50, "unit": "%"}, {"measurement": "mean % damage 14 daa Poa annua", "setting": "[5]; adjuvant 2.5% w/v", "value": 20, "unit": "%"}]}, {"compound": "O=C(O)CNCP(=O)(O)O", "note": "[glyphosate, N-(phosphonomethyl)glycine]", "values": [{"measurement": "time until visual symptoms of phytotoxicity appear", "setting": "[6]", "value": "7 to 10", "unit": "days"}]}]}
